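96-well plates; 48 h exposure; 5 concentrations. Endpoints by linear interpolation between flanking doses. Not reached: highest tested concentration assigned. Abbreviation: GI50, concentration required for 50% inhibition of growth. TGI: concentration producing complete growth inhibition.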
Assays:
Assay in all cases: inhibition of tumour cell growth, NCI panel, 48 h
NCI/ADR-RES ovarian = test system: NCI/ADR-RES ovarian
U251 CNS = test system: U251 CNS
NCI-H460 lung = test system: NCI-H460 lung
A498 renal = test system: A498 renal
NCI-H23 lung = test system: NCI-H23 lung
SNB-19 CNS = test system: SNB-19 CNS
IGROV1 ovarian = test system: IGROV1 ovarian
K-562 leukemia = test system: K-562 leukemia
HOP-92 NSCLC = test system: HOP-92 NSCLC
RXF 393 renal = test system: RXF 393 renal

Structure (SMILES)	TGI (NCI/ADR-RES ovarian)	TGI (U251 CNS)	TGI (NCI-H460 lung)	TGI (A498 renal)	TGI (NCI-H23 lung)	TGI (SNB-19 CNS)	TGI (IGROV1 ovarian)	TGI (K-562 leukemia)	TGI (HOP-92 NSCLC)	TGI (RXF 393 renal)	GI50 (NCI/ADR-RES ovarian)	GI50 (U251 CNS)	GI50 (NCI-H460 lung)	GI50 (A498 renal)	GI50 (NCI-H23 lung)	GI50 (SNB-19 CNS)	GI50 (IGROV1 ovarian)	GI50 (K-562 leukemia)	GI50 (HOP-92 NSCLC)	GI50 (RXF 393 renal)
CNC1C(O)C(OC2C(N)CC(N)C(OC3OC(CN)=CCC3N)C2O)OCC1(C)O (stereo unspecified)	> 100 µM	> 100 µM	> 100 µM	> 100 µM	> 100 µM	> 100 µM	> 100 µM	> 100 µM	> 100 µM											
CSc1nc(NC2OCC(OC(C)=O)C(OC(C)=O)C2OC(C)=O)c(N=C(C)C(C)=O)c(=O)n1C (stereo unspecified)		> 100 µM	> 100 µM	> 100 µM	> 100 µM	> 100 µM	> 100 µM	> 100 µM	> 100 µM	> 100 µM										
O=C(Cc1nc2ccccc2s1)Nc1ccc(Cl)cc1		> 100 µM	> 100 µM	> 100 µM	> 100 µM	> 100 µM	> 100 µM	> 100 µM		> 100 µM										
C[N+](C)(C)CC(=O)N/N=C(\CCC(=O)NCCc1ccccc1)CC(=O)c1ccccc1		> 100 µM	> 100 µM	> 100 µM	> 100 µM	> 100 µM	> 100 µM	> 100 µM	> 100 µM											
CCN(CC)c1ccc(C2CC(c3cc(OC)c(OC)c(OC)c3)=NN2)cc1 (stereo unspecified)	> 100 µM	> 100 µM	11.8 µM	2.44 µM	> 100 µM	> 100 µM	> 25.1 µM	> 37.6 µM	31.1 µM		0.44 µM	0.42 µM	0.331 µM	0.443 µM	2.69 µM	0.636 µM	0.327 µM	0.336 µM	1.55 µM	
COC(=O)C(Cc1cnc[nH]1)NC(=O)CNC(=O)CCCn1c(=O)c2c3ccccc3n(C)c2n2nnc(-c3ccccc3)c12 (stereo unspecified)	> 100 µM	> 100 µM	> 100 µM	> 100 µM	> 100 µM	> 100 µM	> 100 µM	> 100 µM		> 100 µM	> 100 µM	> 100 µM	> 100 µM	> 100 µM	> 100 µM	> 100 µM	72.5 µM	> 100 µM		> 100 µM
C[C@H]1CC[C@H]([C@@H](C)[C@H]2[C@@H](O)C[C@H]3[C@@H]4CC[C@H]5C[C@@H](O)CC[C@]5(C)[C@H]4CC[C@]23C)NC1	32.6 µM	31.9 µM	39.7 µM	32.1 µM	32.5 µM	50.2 µM	35.4 µM		33.7 µM	47.7 µM										
Nc1nc(Cl)cc(NCCCCCNc2cc(Cl)nc(N)n2)n1		> 100 µM	> 100 µM		> 100 µM	> 100 µM	> 100 µM	> 100 µM	> 100 µM	> 100 µM										
O=C(NCCO)c1cc2c(cn1)[nH]c1ccccc12		> 100 µM	> 100 µM	> 100 µM	> 100 µM	> 100 µM	> 100 µM	> 100 µM	> 100 µM	> 100 µM										
CC1=C(C(=O)Nc2ccccc2)C(c2ccc([N+](=O)[O-])cc2)C(C(=O)Nc2ccccc2)=C(C)N1		38.6 µM	70.3 µM	93 µM	64.7 µM	32 µM	> 100 µM	63.5 µM	60.9 µM	46.2 µM										
Nc1ccccc1SC(CC(=O)c1ccccc1)c1ccc([N+](=O)[O-])cc1 (stereo unspecified)	28.9 µM	16.9 µM	36 µM	27.7 µM	27.2 µM	24.6 µM	21.6 µM	14.8 µM		29.6 µM	14.5 µM	4.51 µM	17.3 µM	14.3 µM	13.5 µM	12.2 µM	5.69 µM	3.91 µM		15.8 µM
O=Cc1ccc(-c2ccc(-c3nc4ccccc4[nH]3)cc2)s1	50.9 µM	> 100 µM	29.7 µM		35 µM		> 100 µM	53 µM	28.1 µM	57.8 µM	21.1 µM	26.7 µM	13.1 µM		17.2 µM		34.8 µM	17.7 µM	0.152 µM	22.7 µM
CC(C)N(C(=O)C1(C)CC1)C(C)C		> 100 µM		> 100 µM	> 100 µM	> 100 µM	> 100 µM	> 100 µM	> 100 µM	> 100 µM										
O=C1Nc2cc(Cl)ccc2N=CC1NC(=O)C(c1ccccc1)c1ccccc1Cl (stereo unspecified)		> 100 µM	> 100 µM	> 100 µM	> 100 µM	> 100 µM	> 100 µM	> 100 µM	> 100 µM	> 100 µM										
Cc1nnc(N=Nc2c(O)[nH]c3c(Cl)cc(Cl)cc23)n1N		> 100 µM	> 100 µM	> 100 µM	> 100 µM	> 100 µM	> 100 µM	> 100 µM	> 100 µM	> 100 µM										
C#Cc1c(C)c(/C=C/C(C)=C/C=C/C(C)=C/C(=O)OC)n(C)c1C		> 100 µM	> 100 µM		> 100 µM	> 100 µM	> 100 µM	> 100 µM	> 100 µM											
COc1ccc(/C=C/C(=O)C(C)(C)CN2CCCCC2)cc1		30 µM	43.3 µM	38.5 µM	54.7 µM	> 100 µM	65.8 µM	65.2 µM		38 µM										
COc1cccc(NC(=O)C(C)(C)C)c1C=O		> 100 µM	> 100 µM	> 100 µM	> 100 µM	> 100 µM	> 100 µM	> 100 µM	> 100 µM											
CN(C)c1ncnc2c1Cc1ccccc1C(=O)N2C		> 100 µM	> 100 µM		> 100 µM	> 100 µM	> 100 µM	> 100 µM	> 100 µM	> 100 µM										
C=CCCOC(=O)CO[N+](=O)[O-]		> 100 µM	> 100 µM		> 100 µM	> 100 µM	> 100 µM	> 100 µM		> 100 µM										
N.N.N.N.O=NN1CCCCCC1(P(=O)([O-])[O-])P(=O)([O-])[O-].[Pt+4].[Pt+4]		> 100 µM	> 100 µM	> 100 µM	> 100 µM	> 100 µM	> 100 µM	> 100 µM	> 100 µM	> 100 µM		> 100 µM	> 100 µM	> 100 µM	> 100 µM	> 100 µM	> 100 µM	> 100 µM	> 100 µM	> 100 µM

Reference: PubChem BioAssay (NCI)
